Columns and labels:
[1] = biological target: RAC1 (Homo sapiens, UniProt P63000); experiment: Nucleotide exchange kinetics (mant-GTP/mant-GDP fluorescence); assay type: biochemical; design: Full-length RAC1 carrying a 6xHis tag in C-terminus was purified as previously described; 6xHis (C); made in house
Method: (§1) Figure 2 Identification of a new RAC1 inhibitor (A) Effect of A41 and NSC23766 on ruffle formation (white arrows) induced by EGF (10 ng/mL) in NIH 3T3 cells in serum-free culture medium (CTL). Inhibitors were added at indicated concentration 1 h prior to EGF stimulation. To assess cytoskeleton organization, cells were incubated with Alexa Fluor 488 phalloidin to visualize F-actin. Results shown are representative of 3 independent experiments. Corresponding concentration-response curves have been established by counting the percentages of cells with ruffles (scale bars: 10 μm). (B) Immunoblot analysis and associated quantification of RAC-GTP level and total RAC expression in NIH 3T3 cells stimulated by EGF (10 ng/mL, 5 min) and pre-incubated or not (−) with NSC23766, A41, or A415 at 10^−5 M for 1 h (∗∗∗p < 0.001 vs. controls without EGF stimulation, ^###p < 0.001 vs. controls with EGF stimulation) (N > 3). (C) Representative surface plasmon resonance (SPR) sensograms of binding of immobilized RAC1 with increasing concentrations of A41 with or without EDTA (20 mM) (N > 3). (D) Representative in vitro nucleotide exchange catalyzed by the DH-PH of TIAM (10 nM) measured by the binding of fluorescent mant-GTP (1 μM) to RAC1 (0.5 μM, preloaded with GDP) in the presence of indicated concentrations of A41 (out of N = 6). Dotted lines correspond to the experimental curves, and continuous lines represent the fit of experimental points. (E) Kobs and Kmax were determined in each condition (N = 6). (F) Predicted binding modes of A4 to the NSC23766-binding site (left) or the GDP-binding pocket of RAC1 (right). In the NSC23766-binding site of RAC1, the compound A4 (carbon atoms in blue) makes 2 hydrogen bonds (green dotted line) with Ser71 (S71) and 10 hydrophobic interactions (pink dotted line) with Ala3 (A3), Lys5 (K5), Val36 (V36), Trp56 (W56), Tyr64 (Y64), and Leu67 (L67) leading to a docking score of −6.03 kcal/mol. The GDP molecule is shown with fine line. The P loop is shown in yellow, the switch 1 in orange, and the switch 2 in green. In the GDP-binding pocket, A4 establishes 6 hydrogen bonds with Gly15 (G15), Lys16 (K16), Cys18 (C18), and Lys116 (K116), 1 carbon hydrogen bond with Lys116, and 9 hydrophobic interactions with Cys18, Ile33 (I33), Lys116, Leu119 (L119), and Leu160 (L160), resulting in a docking score of −10.32 kcal/mol.
Figure 3 Inhibitory mechanism of A41 (A–D) RAC1 activity was monitored by the change in mant-GTP/GDP fluorescence induced by its binding to or releasing from RAC1 (A–D). GDP-bound RAC1 (0.5 μM) was incubated with TRIO (10 nM) and the indicated concentrations of mant-GTP without and with A41 (5 μM) (A–C). Mant-GDP-bound RAC1 (0.5 μM) was incubated with TRIO (10 nM) and GTP (1 μM) without and with A41 (5 μM) (D). AU: arbitrary fluorescence units. All experiments were done in triplicate. Kmax and Kmin are expressed as mean ± SEM. ∗∗p < 0.01 and ∗∗∗p < 0.001 vs. TRIO. (E) Deconvoluted mass spectra generated from crude mass spectrum analyses to evaluate RAC1 photolabeling with [N3]-A41 by LC-HRMS on native protein. (F) Representative mass spectra of both labeled and unlabeled […] peptide during LC-HRMS analysis of RAC1 photolabeling with [N3]-A41 after trypsin digestion. (G) Predicted binding mode of A41 to the GDP-binding pocket of RAC1. Compound A41 (orange) makes 4 hydrogen bonds (green dotted line) with Lys16 (K16), Cys18 (C18), and Lys116 (K116), 2 carbon hydrogen bond (light green dotted line) with Val14 (V14) and Lys116 (K116), and 7 hydrophobic interactions (pink dotted line) with Cys18 (C18), Phe28 (F28), Lys116 (K116), Ala159 (A159), and Leu160 (L160). The P loop is shown in yellow, the switch 1 in orange, and the switch 2 in green.
Full-length RAC1 carrying a 6xHis tag in C-terminus was purified as previously described.[64] Full-length RAC2, RHOG, RHOA and CDC42 were purified as previously described.[64]^,[65] […]

[2] = test system: NIH/3T3 cell migration; experiment: 1D cell migration (CYTOO plates); assay type: cell-based; details: 10^-5 M
Method: NIH3T3cells (1000/well) were seeded in a 96 well plate with […] fibronectin stripes (CytooPlates Motility, CYTOO) in medium with 1% SVF and allowed to spread for 4 h before capturing time-lapse images for 24 h (image/10 min) on a Widefield Leica DMI 6000B drove with Metamorph software. Cells speed was measured with ImageJ software.
Supplementary Fig. 3: Example of one pharmacophore model used for virtual screening. (a) The pharmacophore model shown was created based on RAC1 (grey) and NSC23766 (orange) interaction. The pharmacophore model is formed by two hydrogenbond acceptor(HBA)features,one orientedtowardsthe hydroxylgroup of Ser71 (S71) and the other towards the amine group of Gln74 (Q74), one hydrogen bond donor (HBD) feature pointed to the oxygenatom of Leu70 (L70) and two hydrophobic features (HY) located on certain carbon atoms of NSC23766 and facing residues Val36 (V36), Ala59 (A59), Tyr64 (Y64) and Leu67 (L67). The spheres correspond to locationconstraint. […] (b) Impact of different screening molecules (10^-5 M) on NIH/3T3 cell adhesion (xCELLingence Real-time cellanalysis, Agilent), migration (CYTOO Mobility plates) and proliferation (xCELLingence Real-time cell analysis, Agilent) .The level of RAC activation is determinedby the detection of RAC-GTP (pull-down assay) in NIH/3T3 cell treated with EGF (10 ng/mL) and the differentmolecules and normalize to the level of RAC activity measuredin the presenceof the reference RAC inhibitor EHT1864.
(§2) Supplementary Fig. 4: A41 inhibits RAC-dependent cell functions. (a) Representative records of single NIH/3T3 cell migration on micropatterned fibronectin lines (CYTOO Mobility plates) in the absence (Control)and presenceA41 at 10^-5 M (left panel) and corresponding quantification of migration speed (right panel) (scale bar: 20µm). […] (b) Typical curves showing the cell index representing the adhesion of NIH/3T3 fibroblast (xCELLingence Real-time cell analysis, Agilent) under control condition (Control) and pre-treated with 10 µM A41 or NSC23766 (left panel) and corresponding quantification of cell adhesion speed (right panel). […]

[3] = test system: RAC1-GTP levels in MDA-MB-468 Luc cells; experiment: RAC-GTP immunofluorescence; assay type: cell-based; details: 10^-5 M, 1 h
Method: Luciferase (Luc, green) was used to detect the cells. […] (C) Quantification of colony number of indicated cancer cell lines in the presence of A41 (10 μM) expressed as the percentage of control in the absence of A41. […] (D) Immunoblot analysis and corresponding quantification of AKT and P44/42 expression and phosphorylation (pAKT, p44/42) in MDA-MB-468 Luc cells in the absence (−) and presence of NSC23766 or A41 (1 h at 10^−5 M). […] (E) 3D invasion assay of MDA-MB-468 Luc and cancer-associated fibroblasts (CAFs) and corresponding quantification (scale bars: 200 μm).
After indicated treatments, cells were fixed with 4% paraformaldehyde and permeabilized in PBS 0.5% Triton X-100. To assess RAC1 activity, cells were then incubated with RAC-GTP antibody (26903, NewEast Biosciences, King of Prussia, Pa) (dilution 1/500) overnight at room temperature, followed by secondary Alexa 568-labeled anti-mouse antibody (dilution 1/1000). Cancer cells were detected with firefly luciferase antibody (ab21176, Abcam) (dilution 1/500) overnight at room temperature, followed by secondary Alexa 488-labeled anti-rabbit antibody (dilution 1/1000). To assess cytoskeleton organization, cells were incubated with Alexa Fluor 488 phalloidin (A12379, Invitrogen) to visualize F-actin. After staining, cells were mounted in Prolong gold antifade reagent with DAPI and images were captured by a fluorescence microscope.

[4] = test system: NIH/3T3 cell adhesion; experiment: Cell adhesion assay (xCELLigence impedance); assay type: cell-based; details: 10^-5 M
Method: NIH3T3cells (10000/well) were seeded in a 96 well plate microtiter xCELLigence assay plate (E-Plate) (ACEA Biosciences Inc.) and placed on the Real-time xCELLigence Cell Analyzer (Roche Applied Science) platform at 37°C to measure the “cell index” every 5 min for a period of 6 h. The cell index unit is defined as (Rn − Rb)/15. Rn is the cell electrode impedance of the well when it contains cells. Rb is the background impedance of the well with the media alone.
Supplementary Fig. 3: Example of one pharmacophore model used for virtual screening. (a) The pharmacophore model shown was created based on RAC1 (grey) and NSC23766 (orange) interaction. […] (b) Impact of different screening molecules (10^-5 M) on NIH/3T3 cell adhesion (xCELLingence Real-time cellanalysis, Agilent), migration (CYTOO Mobility plates) and proliferation (xCELLingence Real-time cell analysis, Agilent) .The level of RAC activation is determinedby the detection of RAC-GTP (pull-down assay) in NIH/3T3 cell treated with EGF (10 ng/mL) and the differentmolecules and normalize to the level of RAC activity measuredin the presenceof the reference RAC inhibitor EHT1864.
as §2

[5] = test system: NIH/3T3 cell proliferation; experiment: Cell proliferation (xCELLigence); assay type: cell-based; details: 10^-5 M
From the text: Supplementary Fig. 3: Example of one pharmacophore model used for virtual screening. (a) The pharmacophore model shown was created based on RAC1 (grey) and NSC23766 (orange) interaction. The pharmacophore model is formed by two hydrogenbond acceptor(HBA)features,one orientedtowardsthe hydroxylgroup of Ser71 (S71) and the other towards the amine group of Gln74 (Q74), one hydrogen bond donor (HBD) feature pointed to the oxygenatom of Leu70 (L70) and two hydrophobic features (HY) located on certain carbon atoms of NSC23766 and facing residues Val36 (V36), Ala59 (A59), Tyr64 (Y64) and Leu67 (L67). The spheres correspond to locationconstraint. The pharmacophoremodel was completedby thirteen exclusion spheres centered on the main residues of RAC1 defining the binding site. The P loop, the switch 1 and the switch 2 are shown in yellow, orange and green respectively. (b) Impact of different screening molecules (10^-5 M) on NIH/3T3 cell adhesion (xCELLingence Real-time cellanalysis, Agilent), migration (CYTOO Mobility plates) and proliferation (xCELLingence Real-time cell analysis, Agilent) .The level of RAC activation is determinedby the detection of RAC-GTP (pull-down assay) in NIH/3T3 cell treated with EGF (10 ng/mL) and the differentmolecules and normalize to the level of RAC activity measuredin the presenceof the reference RAC inhibitor EHT1864.

[6] = biological target: T1, RAC1 (Mus musculus, UniProt P63001); experiment: RAC-GTP pull-down assay, EGF-stimulated NIH/3T3 fibroblasts; assay type: cell-based; details: 10^-5 M, EGF 10 ng/mL
T1 construct: endogenous in cells; host or cells: NIH/3T3 fibroblasts (ATCC CRL-1658), EGF-stimulated
Method: as §1, with “In the GDP-binding pocket, A4 establishes 6 hydrogen bonds with Gly15 (G15), Lys16 (K16), Cys18 (C18), and Lys116 (K116), 1 carbon hydrogen bond with Lys116, and 9 hydrophobic interactions with Cys18, Ile33 (I33), Lys116, Leu119 (L119), and Leu160 (L160), resulting in a docking score of −10.32 kcal/mol.” left out
Pull-down assay using GST-PBD fusion proteins were performed on NIH-3T3 lysates to assess RAC1 activity as previously described.[63] The precipitated active RAC was subjected to SDS-PAGE and detected by immunoblot with anti-RAC1 antibody (BD biosciences) (dilution 1/1000). […]
screening molecules (10^-5 M) on NIH/3T3 cell adhesion (xCELLingence Real-time cellanalysis, Agilent), migration (CYTOO Mobility plates) and proliferation (xCELLingence Real-time cell analysis, Agilent) .The level of RAC activation is determinedby the detection of RAC-GTP (pull-down assay) in NIH/3T3 cell treated with EGF (10 ng/mL) and the differentmolecules and normalize to the level of RAC activity measuredin the presenceof the reference RAC inhibitor EHT1864.

[7] = test system: RAC1-dependent membrane ruffle formation in NIH 3T3 cells; experiment: EGF-induced membrane ruffle formation; assay type: cell-based
Method: Figure 2 Identification of a new RAC1 inhibitor (A) Effect of A41 and NSC23766 on ruffle formation (white arrows) induced by EGF (10 ng/mL) in NIH 3T3 cells in serum-free culture medium (CTL). Inhibitors were added at indicated concentration 1 h prior to EGF stimulation. To assess cytoskeleton organization, cells were incubated with Alexa Fluor 488 phalloidin to visualize F-actin. Results shown are representative of 3 independent experiments. Corresponding concentration-response curves have been established by counting the percentages of cells with ruffles (scale bars: 10 μm). (B) Immunoblot analysis and associated quantification of RAC-GTP level and total RAC expression in NIH 3T3 cells stimulated by EGF (10 ng/mL, 5 min) and pre-incubated or not (−) with NSC23766, A41, or A415 at 10^−5 M for 1 h (∗∗∗p < 0.001 vs. controls without EGF stimulation, ^###p < 0.001 vs. controls with EGF stimulation) (N > 3). […] (D) Representative in vitro nucleotide exchange catalyzed by the DH-PH of TIAM (10 nM) measured by the binding of fluorescent mant-GTP (1 μM) to RAC1 (0.5 μM, preloaded with GDP) in the presence of indicated concentrations of A41 (out of N = 6). […] (E) Kobs and Kmax were determined in each condition (N = 6). […]
After indicated treatments, cells were fixed with 4% paraformaldehyde and permeabilized in PBS 0.5% Triton X-100. […] Cancer cells were detected with firefly luciferase antibody (ab21176, Abcam) (dilution 1/500) overnight at room temperature, followed by secondary Alexa 488-labeled anti-rabbit antibody (dilution 1/1000). […] After staining, cells were mounted in Prolong gold antifade reagent with DAPI and images were captured by a fluorescence microscope. […]
Supp. […] For each molecule, druglikeness has been assessed according to Lipinski’s rules: molecular weight (MW)<500; high lipophilicity (LogP<5); less than 5 hydrogen bond donors (HBD); less than 10 hydrogen bond acceptors (HBA). The log P was calculated by using OSIRIS – Data Warrior software. […] IC50 was determined experimentally from the inhibition

COc1ccc(OC)c(NS(=O)(=O)c2ccc(NC(=O)CCSc3ccc(N=[N+]=[N-])cc3)cc2)c1 [[N3]-A41]
Inhibition of RAC1 activity (nucleotide exchange assay) [1]: 46%

O=c1cc(CN2CCOCC2)occ1OCCCCCSc1ccnc2cc(C(F)(F)F)ccc12 [EHT1864]
Migration (% inhib) [2]: 35% | effect on RAC1 activity [3]: no | Adhesion (% inhib) [4]: 32% | Proliferation (% ctrl) [5]: 101% | Rac-GTP level (relative to EHT1864) [6]: 1.00

CCC(=O)Nc1ccc(S(=O)(=O)Nc2cc(OC)ccc2OC)cc1 [Compound A420]
inhibitory effect on RAC1 [7]: loss of the inhibitory effect on RAC1

— PMC12281424, “A Rac-specific competitive inhibitor of guanine nucleotide binding reduces metastasis in triple-negative breast cancer” (Cell Reports Medicine, 2025)
